The test system of assay [1] is angiogenesis (endothelial cell invasion of basement membrane extract with bFGF and VEGF). As to the kind of experiment: Directed in vivo angiogenesis assay (DIVAA), subcutaneously implanted angioreactors. Also noted: species or system C57BL/6 mice. Particulars: 200 μg/ml peptide with bFGF and VEGF in the matrix; 11 days after implantation. As to the method: A directed in vivo anti-angiogenesis assay (DIVAA) was used to test the anti-angiogenic efficacy of the alpha 5 fibril of collagen type 4, which had the sequence: SAPFIECHGRGTCNYYANS (SEQ ID NO: 91). […] The peptide was solubilized in buffer solution at 200 μg/ml without an organic solvent. DIVAA is a reproducible and quantitative in-vivo method of assaying angiogenesis. It involves preparation of silicon cylinders of 20 μl volume, closed on one side, filled with some type of extracellular matrix (for example Matrigel or BME-basement membrane extract) with or without premixed angiogenic factors. These angioreactors are then implanted subcutaneously in the dorsal flank of mice. Accompanied with the onset of angiogenesis, vascular endothelial cells migrate into the extracellular matrix and form vessels in the angioreactor. […]
To obtain a quantitative assessment of the angiogenic invasion, the content of the angioreactors was removed from the cylinder and the endothelial cells were stained using FITC-Lectin (FIG. 38A) Once the tubes were extracted from the mice, the inside of the angioreactors was rinsed with 300 μl of a 36 kDa, bacillus-derived neutral metalloproteinase which is commercially available as Cellsperse (Trevigen, Inc., Gaithersburg, Md.), an extracellular matrix digesting solution and the content of the reactors as well as the rinse was transferred into a microtube. […]

The test system of assay [2] is human umbilical vein endothelial cells (HUVECs). Description: HUVEC proliferation assay (WST-1), 2- and 4-day, 5,000 cells per well. The assay is classed as cell-based. Particulars: for peptide concentration at which maximum activity was observed: day not specified; for concentration-response profile in words: 2- and/or 4-day assay. As to the method: The effect of the various peptides on cell proliferation was assayed, by administering the peptides to human umbilical vein endothelial cells (HUVECs) in culture. 45 peptides belonging to four distinct families of proteins including the thrombospondin-1 containing proteins, the C-X-C chemokines, collagen derived peptides and peptides from tissue inhibitors of metalloproteinases were tested. The potency of each of the peptides was tested using the proliferation assay at 2 days and 4 days following administration of the peptides and a similar assay using a different cell density at 3 days. In the four-day experiments, the cell medium was changed after the second day of incubation and the peptide was replaced at the initial concentration together with the medium. TNP-470 is an antiangiogenic compound that was used as a positive control for assessing anti-angiogenic efficacy. The activity of each polypeptide was, therefore, expressed as a percentage of TNP-470 activity, i.e., the optical density obtained experimentally is scaled such that the negative control is 0% and the positive control is 100% as explained below (FIG. 4). Each plate included a well having HUVEC cells that received 0.1 μg/ml TNP-470. For example, a peptide having the same effect on endothelial cell proliferation would have 100% of the activity of TNP-470. Note that activity could exceed 100%. In this assay, the effects of the predicted anti-angiogenic fragments on the ability of HUVECs to proliferate was characterized. […] A commonly used methodology to test for proliferation is to monitor the viability and metabolic activity of endothelial cells, in the presence of the anti-angiogenic fragments at different concentrations and various time steps. The cell proliferation reagent WST-1 was used as a substrate/assay to measure the metabolic activity of viable cells. WST-1 is a colorimetric, non-radioactive assay and can be performed in a microplate. It is suitable for measuring cell proliferation, cell viability or cytotoxicity. The assay is based on the reduction a red tetrazolium salt, WST-1, by viable, metabolically active, cells to form the yellow formazan crystals soluble in the cell medium. […] The cells are cultured described above. Once cells have reached 80% confluence they are trypsinized and resuspended in EGM-2. The cell density is estimated using a hemocytometer. All of the endothelial cells used were from passage 4 to passage 8. The proliferation assay involved two steps. During the first step the cells, approximately 5,000 cells per well for a 96-well plate, were seeded without any extracellular matrix substrate on the wells overnight (8 hours). The initial cell culture medium was removed using a multichannel pipetor and the candidate peptides were applied. A logarithmic scale of four different concentrations of 0.01 μg/ml, 0.1 μg/ml, 1 μg/ml and 10 μg/ml of each peptide was used. Each of the concentrations was tested in quadruplicate. The viability of the cells was challenged at 2 and 4 days upon the application of the peptide. As a positive control for decreased viability, 0.1 μg/ml of TNP-470 (O-(chloro-acetyl-carbamoyl) fumagillol, a synthetic analogue of fumagillin; TNP-470 was provided by NCI, was provided along with the medium, and as a negative control for normal viability, the cells were cultured without the addition of any agent. The cells were then incubated with 10 μl per well of the red WST-1 reagent for approximately 2 to 4 hours. During this incubation period, viable cells converted, in their mitochondria, the red WST-1 to the yellow formazan crystals which dissolve in the medium. The second step of the assay involved the quantification of the changes in proliferation which was performed by measuring the change in color after lysing the cells. The samples were read using the ELISA plate reader Victor3 V (Perkin Elmer) at a wavelength of […]. The amount of color produced is directly proportional to the number of viable cells. […]
In general terms: Formazan colour is commonly taken as a measure of viable cells.

Assay [3] has the same test system. As to the kind of experiment: HUVEC proliferation assay (WST-1), 3-day, 2,000 cells per well. It is filed as cell-based. Particulars: 3-day assay; for anti-proliferative activity (maximum or stated level), scaled so that TNP-470 = 100%: 0.01-30 μg/ml; for anti-proliferative activity in words: overall. As to the method:
In addition to the 2 and 4 day proliferation experiment where 5,000 cells per well were seeded, the effects of the peptides on the proliferating ability of HUVECs were also studied using cells seeded at a density of 2,000 cells per well. This lower cell seeding density allowed the experiment to be extend for an additional day without changing the cell medium. The effects of the peptides when applied to the cells for 3 consecutive days is also reported herein. The proliferation assay again involved two steps. During the first step 2,000 cells per well for a 96-well plate were seeded without any extracellular matrix substrate on the wells overnight (8 hours). The initial cell culture medium was removed using a multichannel pipetor. To synchronize the cells, the cells were serum starved for 4 hours and the candidate peptides were applied. During serum starvation the cell culture medium was changed from a “full” medium to the “basal” medium, which contained no growth factors or serum. Serum starvation for 4 hours had no effect on the proliferation of the cells. For this assay, the logarithmic scale of four different concentrations of 0.01 μg/ml, 0.1 μg/ml, 1 μg/ml and 10 μg/ml of peptide was used. In addition, a larger concentration of 30 μg/ml peptide was also applied. Each of the concentrations was again tested in quadruplicate. After the third day of peptide application the WST-1 dye was applied for approximately 2 to 4 hours (usually after 3 hours the color saturates). The proliferation was later tested on the ELISA plate reader as described for the 2 and 4 day assay. Note that the 2- and 4-day and the 3-day protocols differed in that 5,000 cells/well versus 2,000 cells/well seeded, respectively.

Setting [4] is: 4 days of peptide application, 0.01-10 μg/ml.

The source of these data is patent US9187539B2, “Compositions having antiangiogenic activity and uses thereof” (The Johns Hopkins University, priority 2005, dated 2015).

Consider “SAPFIECHGRGTCNYYANS [SEQ ID NO: 91, α5CIV AAC27816.1: 1626-1644]”, for which, in assay [1], the “endothelial cell invasion of the extracellular matrix in angioreactors” value is listed as “Fewer endothelial cells invaded the extracellular matrix” and the “inhibition of angiogenesis in angioreactors” value is “strongly inhibited angiogenesis”. The “anti-proliferative activity in words” value in assay [2] (2- and 4-day assay, overall) was “low activity”. Also, the “anti-proliferative activity in words at high peptide concentration” value in assay [3] (high/highest applied concentration (30 μg/ml where stated)) was “activity increases”.

As to “TQWTSCSKTCNSGTQSRHR [SEQ ID NO: 38, C6 AAB59433.1: 30-48]”, in assay [2] (setting [4]), the “anti-proliferative activity (maximum or stated level), scaled so that TNP-470 = 100%” value came to 35%. In assay [3], the “concentration-response profile in words” value was “biphasic” and the “anti-proliferative activity (maximum or stated level), scaled so that TNP-470 = 100%” value is listed as 25%.

Consider “TSWSQCSKTCGTGISTRV [SEQ ID NO: 42, CYR61 AAR05446.1: 234-251]”, for which the “peptide concentration at which maximum activity was observed” value in assay [2] (2- and 4-day assay) was 0.01 µg/mL; in assay [3], 0.1 µg/mL. For the same sequence, the “anti-proliferative activity (maximum or stated level), scaled so that TNP-470 = 100%” value worked out at 30% in assay [2] (2- and 4-day assay, day not specified or constant throughout the four days); 30% in assay [3]. In assay [2], the “concentration-response profile in words” value was “biphasic”.

Regarding “WDECSATCGMGMKKRHR [SEQ ID NO: 72, VSGP/F-spondin BAB18461.1: 567-583]”, the “anti-proliferative activity in words” value is listed as “not statistically significant” in assay [2] (2 days of peptide application) and “exhibited activity” in assay [3]. Also, in assay [2] (setting [4]), the “anti-proliferative activity (maximum or stated level), scaled so that TNP-470 = 100%” value was determined as 10%.

As for “WTRCSSSCGRGVSVRSR [SEQ ID NO: 66, THSD6 AAH40620.1: 44-60]”, the “peptide concentration at which maximum activity was observed” value in assay [2] (2- and 4-day assay) amounted to 0.1 µg/mL. In addition, the “concentration-response profile in words” value in assay [2] and in assay [3] was “biphasic” each time. For the same sequence, the “anti-proliferative activity (maximum or stated level), scaled so that TNP-470 = 100%” value in assay [2] (2 days of peptide application, 0.01-10 μg/ml) is listed as “approximately 20%”; in assay [3], approximately 30%.

With “YCNIHQVCHYAQRNDRSYWL [SEQ ID NO: 86, α4CIV CAA56943.1: 1524-1543]”, the “anti-proliferative activity in words” value in assay [2] (2- and 4-day assay, overall) is “low anti-proliferative activity”. In assay [3], the “concentration-response profile in words” value is “increasing at higher peptide concentrations” and the “anti-proliferative activity in words” value is “greater”.

On to “YCNINEVCHYARRNDKSYWL [SEQ ID NO: 93, α6CIV CAI40758.1: 1526-1545]”, for which the “anti-proliferative activity (maximum or stated level), scaled so that TNP-470 = 100%” value in assay [2] (setting [4]) came out at 15%. In addition, the “anti-proliferative activity, TNP-470 = 100%” value in assay [3] (30 μg/ml peptide) was 80%.
